Measurements reported in US4988686A, “Cephem compounds and anti-bacterial agent” (Meiji Seika Kabushiki Kaisha, priority 1988, dated 1991).
Converted amounts (≈) assume the structure as drawn. Read-outs that look alike come from different tables or passages of the source.

How the values were obtained:
Assay in all cases: agar-dilution method, minimum inhibitory concentration
Assay type in all cases: cell-based
[1] = system: Pseudomonas aeruginosa IMA-1007
From the text: (§1) In order to illustrate the utility of the objective compound (I), anti-bacterial activities measured by the agar-dilution method for some of these compounds (I) are shown in table 1.

[2] = system: Pseudomonas cepacia M-0527; conditions: Burkholderia cepacia, M0527
From the text: as §1

[3] = system: Escherichia coli 255
From the text: as §1

[4] = system: Pseudomonas aeruginosa M-0148
From the text: as §1

[5] = system: Bacillus subtilis ATCC 6633
From the text: as §1

[6] = system: Staphylococcus aureus 209PJC-1
From the text: as §1

[7] = system: Proteus vulgaris 76
From the text: as §1

[8] = system: Klebsiella pneumoniae GN69
From the text: as §1

[9] = system: Enterobacter cloacae GN7471
From the text: as §1

[10] = system: Pseudomonas aeruginosa E-2
From the text: as §1

[11] = system: Cytrobacter freundii GN346; conditions: read-out: Minimum Inhibitory Concentration
From the text: as §1

[12] = system: Escherichia coli No. 29
From the text: as §1

[13] = system: Serratia marcescens No. 1
From the text: as §1

[14] = IMA1007, Pseudomonas aeruginosa IMA-1007, agar-dilution method, read-out: Minimum Inhibitory Concentration
[15] = M0148, Pseudomonas aeruginosa M-0148, agar-dilution method, read-out: Minimum Inhibitory Concentration
[16] = ATCC6633, Bacillus subtilis ATCC 6633, agar-dilution method, read-out: Minimum Inhibitory Concentration
[17] = 209PJC1, Staphylococcus aureus 209PJC-1, agar-dilution method, read-out: Minimum Inhibitory Concentration
[18] = Proteus vulgaris 76, agar-dilution method, read-out: Minimum Inhibitory Concentration
[19] = Klebsiella pneumoniae GN69, agar-dilution method, read-out: Minimum Inhibitory Concentration
[20] = Enterobacter cloacae GN7471, agar-dilution method, read-out: Minimum Inhibitory Concentration
[21] = E2, Pseudomonas aeruginosa E-2, agar-dilution method, read-out: Minimum Inhibitory Concentration
[22] = Cytrobacter freundii GN346, agar-dilution method
[23] = Serratia marcescens No. 1, agar-dilution method, read-out: Minimum Inhibitory Concentration

## CC(C)(O/N=C(\C(=O)N[C@@H]1C(=O)N2C(C(=O)[O-])=C(C[n+]3ccccc3)CS[C@H]12)c1csc(N)n1)C(=O)O [Ceftazidime, reference compound]
[1]; Pseudomonas aeruginosa, IMA1007, read-out: Minimum Inhibitory Concentration
  MIC: 0.78 µg/mL (≈ 1.43 µM)
[2]
  MIC: 0.39 µg/mL (≈ 0.714 µM)
[3]
  MIC: 25 µg/mL (≈ 45.7 µM)
[4]; Pseudomonas aeruginosa, M0148, read-out: Minimum Inhibitory Concentration
  MIC: 1.56 µg/mL (≈ 2.85 µM)
[5]; Bacillus subtilis, ATCC6633, read-out: Minimum Inhibitory Concentration
  MIC: 3.13 µg/mL (≈ 5.73 µM)
[6]; Staphylococcus aureus, 209PJC1, read-out: Minimum Inhibitory Concentration
  MIC: 3.13 µg/mL (≈ 5.73 µM)
[7]; Proteus vulgaris, 76, read-out: Minimum Inhibitory Concentration
  MIC: 0.05 µg/mL (≈ 0.0915 µM)
[8]; Klebsiella pneumoniae, GN69, read-out: Minimum Inhibitory Concentration
  MIC: 0.1 µg/mL (≈ 0.183 µM)
[9]; Enterobacter cloacae, GN7471, read-out: Minimum Inhibitory Concentration
  MIC: 3.13 µg/mL (≈ 5.73 µM)
[10]; Pseudomonas aeruginosa, E2, read-out: Minimum Inhibitory Concentration
  MIC: 0.39 µg/mL (≈ 0.714 µM)
[11]
  MIC: 25 µg/mL (≈ 45.7 µM)
[12]
  MIC: 0.2 µg/mL (≈ 0.366 µM)
[13]; Serratia marcescens, NO.1, read-out: Minimum Inhibitory Concentration
  MIC: ≤ 0.025 µg/mL

## CO/N=C(\C(=O)N[C@@H]1C(=O)N2C(C(=O)O)=C(/C=C/c3cc(=O)c(O)cn3O)CS[C@H]12)c1csc(N)n1 [Example 2, (6R, 7R)-7-[(Z)-2-(2-aminothiazol-4-yl)-2-methoxyiminoacetamido]-3-[2-(1,5-dihydroxy-4-pyridon-2-yl)vinyl]-ceph-3-em-4-carboxylic]
[1]; [14]
  MIC: 0.1 µg/mL (≈ 0.187 µM)
[2]
  MIC: ≤ 0.025 µg/mL
[3]
  MIC: ≤ 0.025 µg/mL
[4]; [15]
  MIC: 0.2 µg/mL (≈ 0.374 µM)
[5]; [16]
  MIC: 6.25 µg/mL (≈ 11.7 µM)
[6]; [17]
  MIC: 25 µg/mL (≈ 46.8 µM)
[7]; [18]
  MIC: ≤ 0.025 µg/mL
[8]; [19]
  MIC: 0.05 µg/mL (≈ 0.0935 µM)
[9]; [20]
  MIC: 0.05 µg/mL (≈ 0.0935 µM)
[10]; [21]
  MIC: 0.1 µg/mL (≈ 0.187 µM)
[11]; [22]
  MIC: 0.1 µg/mL (≈ 0.187 µM)
[12]
  MIC: ≤ 0.025 µg/mL
[13]; [23]
  MIC: ≤ 0.025 µg/mL

## CC(C)(O/N=C(\C(=O)N[C@@H]1C(=O)N2C(C(=O)O)=C(/C=C/c3cc(=O)c(O)cn3O)CS[C@H]12)c1csc(N)n1)C(=O)O [Example 5, (6R,7R)-7-[(Z)-2-(2-aminothiazol-4-yl)-2-(1-methyl-1carboxy)ethoxyiminoacetamido]-3-[2-(1,5-dihydroxy-4-pyridon-2-yl)vinyl]-ceph-3-em-4-carboxylic acid, trans-isomer]
[1]; [14]
  MIC: ≤ 0.025 µg/mL
[2]
  MIC: ≤ 0.025 µg/mL
[3]
  MIC: ≤ 0.025 µg/mL
[4]; [15]
  MIC: ≤ 0.025 µg/mL
[5]; [16]
  MIC: 100 µg/mL (≈ 165 µM)
[6]; [17]
  MIC: > 100 µg/mL
[7]; [18]
  MIC: ≤ 0.025 µg/mL
[8]; [19]
  MIC: ≤ 0.025 µg/mL
[9]; [20]
  MIC: 0.78 µg/mL (≈ 1.29 µM)
[10]; [21]
  MIC: ≤ 0.025 µg/mL
[11]; [22]
  MIC: 12.5 µg/mL (≈ 20.6 µM)
[12]
  MIC: 0.1 µg/mL (≈ 0.165 µM)
[13]; [23]
  MIC: 0.05 µg/mL (≈ 0.0824 µM)

## CO/N=C(\C(=O)N[C@@H]1C(=O)N2C(C(=O)O)=C(/C=C/c3cc(=O)c(O)cn3C)CS[C@H]12)c1csc(N)n1 [Example 7, (6R ,7R)-7 - [(Z )-2-(2-aminothiazol-4-yl)-2-methoxyiminoacetamido]-3-[2-(5-hydroxy-1-methyl-4-pyridon-2-yl)vinyl]-ceph-3-em-4-carboxylic acid, trans-isomer]
[1]; [14]
  MIC: 1.56 µg/mL (≈ 2.93 µM)
[2]
  MIC: ≤ 0.025 µg/mL
[3]
  MIC: 0.1 µg/mL (≈ 0.188 µM)
[4]; [15]
  MIC: 12.5 µg/mL (≈ 23.5 µM)
[5]; [16]
  MIC: 0.78 µg/mL (≈ 1.46 µM)
[6]; [17]
  MIC: 6.25 µg/mL (≈ 11.7 µM)
[7]; [18]
  MIC: ≤ 0.025 µg/mL
[8]; [19]
  MIC: 0.05 µg/mL (≈ 0.0939 µM)
[9]; [20]
  MIC: 0.1 µg/mL (≈ 0.188 µM)
[10]; [21]
  MIC: 1.56 µg/mL (≈ 2.93 µM)
[11]; [22]
  MIC: 1.56 µg/mL (≈ 2.93 µM)
[12]
  MIC: 0.05 µg/mL (≈ 0.0939 µM)
[13]; [23]
  MIC: ≤ 0.025 µg/mL

## CO/N=C(\C(=O)N[C@@H]1C(=O)N2C(C(=O)O)=C(/C=C\c3cc(=O)c(O)cn3OC)CS[C@H]12)c1csc(N)n1 [Example 10]
[1]; [14]
  MIC: 0.78 µg/mL (≈ 1.42 µM)
[2]
  MIC: 12.5 µg/mL (≈ 22.8 µM)
[3]
  MIC: 0.2 µg/mL (≈ 0.365 µM)
[4]; [15]
  MIC: 12.5 µg/mL (≈ 22.8 µM)
[5]; [16]
  MIC: 0.78 µg/mL (≈ 1.42 µM)
[6]; [17]
  MIC: 12.5 µg/mL (≈ 22.8 µM)
[7]; [18]
  MIC: 0.1 µg/mL (≈ 0.182 µM)
[8]; [19]
  MIC: 0.2 µg/mL (≈ 0.365 µM)
[9]; [20]
  MIC: 1.56 µg/mL (≈ 2.84 µM)
[10]; [21]
  MIC: 0.78 µg/mL (≈ 1.42 µM)
[11]; [22]
  MIC: 25 µg/mL (≈ 45.6 µM)
[12]
  MIC: 0.2 µg/mL (≈ 0.365 µM)
[13]; [23]
  MIC: 0.2 µg/mL (≈ 0.365 µM)

## Cn1cc(O)c(=O)cc1/C=C/C1=C(C(=O)O)N2C(=O)[C@@H](NC(=O)/C(=N\OC(C)(C)C(=O)O)c3csc(N)n3)[C@H]2SC1 [Example 12, (6R,7R)-7-[(Z)-2-(2-aminothiazol-4-y1)-2-(1-methyl-1carboxy)ethoxyiminoacetamido]-3-[2-(5-hydroxy-1-methyl-4-pyridon-2-yl)vinyl]-ceph-3-em-4-carboxylic acid, trans-isomer]
[1]; [14]
  MIC: ≤ 0.025 µg/mL
[2]
  MIC: ≤ 0.025 µg/mL
[3]
  MIC: 0.05 µg/mL (≈ 0.0827 µM)
[4]; [15]
  MIC: 0.2 µg/mL (≈ 0.331 µM)
[5]; [16]
  MIC: 12.5 µg/mL (≈ 20.7 µM)
[6]; [17]
  MIC: 100 µg/mL (≈ 165 µM)
[7]; [18]
  MIC: ≤ 0.025 µg/mL
[8]; [19]
  MIC: 0.05 µg/mL (≈ 0.0827 µM)
[9]; [20]
  MIC: 0.2 µg/mL (≈ 0.331 µM)
[10]; [21]
  MIC: 0.05 µg/mL (≈ 0.0827 µM)
[11]; [22]
  MIC: 3.13 µg/mL (≈ 5.18 µM)
[12]
  MIC: 0.1 µg/mL (≈ 0.165 µM)
[13]; [23]
  MIC: 0.1 µg/mL (≈ 0.165 µM)

## CC(C)(O/N=C(\C(=O)N[C@@H]1C(=O)N2C(C(=O)O)=C(/C=C/c3cc(=O)c(O)cn3Cc3ccncc3)CS[C@H]12)c1csc(N)n1)C(=O)O [Example 21, (6R,7R)-7-[(Z)-2-aminothiazol-4-y1)-2-(1-methyl-1-carboxy)ethoxyiminoacetamido]-3-[2-(5-hydroxy-1-(4-pyridyl)methyl-4-pyridon-2-y1)vinyl]-ceph-3-em-4carboxylic acid, trans-isomer]
[1]; [14]
  MIC: ≤ 0.025 µg/mL
[2]
  MIC: ≤ 0.025 µg/mL
[3]
  MIC: 0.1 µg/mL (≈ 0.147 µM)
[4]; [15]
  MIC: 0.2 µg/mL (≈ 0.293 µM)
[5]; [16]
  MIC: 12.5 µg/mL (≈ 18.3 µM)
[6]; [17]
  MIC: 100 µg/mL (≈ 147 µM)
[7]; [18]
  MIC: 0.05 µg/mL (≈ 0.0733 µM)
[8]; [19]
  MIC: 0.1 µg/mL (≈ 0.147 µM)
[9]; [20]
  MIC: 1.56 µg/mL (≈ 2.29 µM)
[10]; [21]
  MIC: 0.05 µg/mL (≈ 0.0733 µM)
[11]; [22]
  MIC: 6.25 µg/mL (≈ 9.17 µM)
[12]
  MIC: 0.1 µg/mL (≈ 0.147 µM)
[13]; [23]
  MIC: 0.1 µg/mL (≈ 0.147 µM)
